Laboratory results from the supplement of paper PMC10307832.

Key:
Experiment in all cases: relative viability (nuclei count vs DMSO), 5 days (fraction); higher = more cells survive
[1] = compound: O=C(CCCCCCC(=O)Nc1ccccc1)NO [Vorinostat]
Procedure, shortened: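 Lung cancer cell lines received five library-drug doses (not always all listed) spaced by √10, pinned on vehicle-anchored 1536-well plates after an overnight stay at 37 °C. Five days later, with no medium change, nuclei were Hoechst-stained, imaged at 4× and counted with MetaXpress. Viability is treated-well nuclei relative to vehicle-well nuclei, as a median across plates. Passing plates had control CV below 25% and at least one doubling.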

[2] = compound: O=C(CCCCCCC(=O)Nc1ccccc1)NO [Vorinostat] + CC1(C)CCC(c2ccc(Cl)cc2)=C(CN2CCN(c3ccc(C(=O)NS(=O)(=O)c4ccc(N[C@H](CCN5CCOCC5)CSc5ccccc5)c(S(=O)(=O)C(F)(F)F)c4)cc3)CC2)C1 [Navitoclax] (partner 0.5 µM)
Procedure, shortened: (§1)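 One day after seeding in 1536-well plates, lung cancer cell lines were dosed by pin tool. Dosing was either single-drug or a fixed anchor-drug dose plus five library-drug doses (not always all listed) in √10 steps. After 5 days, nuclei were stained in one fix-and-stain step and counted on 4× images, and relative viability is the nuclei count of treated wells over that of vehicle wells, given as the median of duplicate plates.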

[3] = compound: O=C(CCCCCCC(=O)Nc1ccccc1)NO [Vorinostat] + COc1cc2c(Oc3ccc(NC(=O)C4(C(=O)Nc5ccc(F)cc5)CC4)cc3F)ccnc2cc1OCCCN1CCOCC1 [Foretinib] (partner 0.25 µM)
Procedure, shortened: as §1

[4] = compound: O=C(CCCCCCC(=O)Nc1ccccc1)NO [Vorinostat] + CC(C)C[C@H](NC(=O)[C@H](Cc1ccccc1)NC(=O)c1cnccn1)B(O)O [Bortezomib] (partner 0.002 µM)
Procedure, shortened: as §1

[5] = compound: O=C(CCCCCCC(=O)Nc1ccccc1)NO [Vorinostat] + Cc1nc(NC(=O)N2CCC[C@H]2C(N)=O)sc1-c1ccnc(C(C)(C)C(F)(F)F)c1 [Alpelisib] (partner 2 µM)
Procedure, shortened: as §1

[6] = compound: O=C(CCCCCCC(=O)Nc1ccccc1)NO [Vorinostat] + C[C@]1(O)C[C@@H](c2nc(-c3ccc4ccc(-c5ccccc5)nc4c3)c3c(N)nccn32)C1 [Linsitinib] (partner 1 µM)
Procedure, shortened: as §1

[7] = compound: O=C(CCCCCCC(=O)Nc1ccccc1)NO [Vorinostat] + C[C@@H](Oc1cc(-c2cnn(C3CCNCC3)c2)cnc1N)c1c(Cl)ccc(F)c1Cl [Crizotinib] (partner 1 µM)
Procedure, shortened: as §1

[8] = compound: O=C(CCCCCCC(=O)Nc1ccccc1)NO [Vorinostat] + O=C(c1cc(Cc2n[nH]c(=O)c3ccccc23)ccc1F)N1CCN(C(=O)C2CC2)CC1 [Olaparib] (partner 8 µM)
Procedure, shortened: as §1

[9] = compound: O=C(CCCCCCC(=O)Nc1ccccc1)NO [Vorinostat] + CS(=O)(=O)CCNCc1ccc(-c2ccc3ncnc(Nc4ccc(OCc5cccc(F)c5)c(Cl)c4)c3c2)o1 [Lapatinib] (partner 2 µM)
Procedure, shortened: as §1

[10] = compound: O=C(CCCCCCC(=O)Nc1ccccc1)NO [Vorinostat] + CS(=O)(=O)N1CCN(Cc2cc3nc(-c4cccc5[nH]ncc45)nc(N4CCOCC4)c3s2)CC1 [Pictilisib] (partner 1 µM)
Procedure, shortened: as §1

[11] = compound: O=C(CCCCCCC(=O)Nc1ccccc1)NO [Vorinostat] + Nc1ncn([C@H]2C[C@H](O)[C@@H](CO)O2)c(=O)n1 [Decitabine] (partner 2 µM)
Procedure, shortened: as §1

[12] = compound: O=C(CCCCCCC(=O)Nc1ccccc1)NO [Vorinostat] + COc1cccc2cc(-c3nc([C@H]4CC[C@H](C(=O)O)CC4)n4ncnc(N)c34)[nH]c12 [OSI-027] (partner 0.5 µM)
Procedure, shortened: as §1

[13] = compound: O=C(CCCCCCC(=O)Nc1ccccc1)NO [Vorinostat] + CC(=O)c1c(C)c2cnc(Nc3ccc(N4CCNCC4)cn3)nc2n(C2CCCC2)c1=O [Palbociclib] (partner 0.5 µM)
Procedure, shortened: as §1

[14] = compound: O=C(CCCCCCC(=O)Nc1ccccc1)NO [Vorinostat] + Cc1cc(Nc2cc(N3CCN(C)CC3)nc(Sc3ccc(NC(=O)C4CC4)cc3)n2)n[nH]1 [Tozasertib] (partner 0.1 µM)
Procedure, shortened: as §1

[15] = compound: O=C(CCCCCCC(=O)Nc1ccccc1)NO [Vorinostat] + N=C(N)NC(=N)NCCc1ccccc1 [Phenformin] (partner 250 µM)
Procedure, shortened: as §1

[16] = compound: O=C(CCCCCCC(=O)Nc1ccccc1)NO [Vorinostat] + CC(=O)Nc1cccc(-n2c(=O)n(C3CC3)c(=O)c3c(Nc4ccc(I)cc4F)n(C)c(=O)c(C)c32)c1 [Trametinib] (partner 0.02 µM)
Procedure, shortened: as §1

[17] = compound: O=C(CCCCCCC(=O)Nc1ccccc1)NO [Vorinostat] + Cc1nc(Nc2ncc(C(=O)Nc3c(C)cccc3Cl)s2)cc(N2CCN(CCO)CC2)n1 [Dasatinib] (partner 0.075 µM)
Procedure, shortened: as §1

[18] = compound: O=C(CCCCCCC(=O)Nc1ccccc1)NO [Vorinostat] + NC(=O)Nc1cc(-c2cccc(F)c2)sc1C(=O)N[C@H]1CCCNC1 [AZD7762] (partner 0.2 µM)
Procedure, shortened: as §1

[19] = compound: O=C(CCCCCCC(=O)Nc1ccccc1)NO [Vorinostat] + CCNC(=O)c1noc(-c2cc(C(C)C)c(O)cc2O)c1-c1ccc(CN2CCOCC2)cc1 [Luminespib] (partner 0.01 µM)
Procedure, shortened: as §1

[20] = compound: O=C(CCCCCCC(=O)Nc1ccccc1)NO [Vorinostat] + Nc1nc2[nH]cc(CCc3ccc(C(=O)N[C@@H](CCC(=O)O)C(=O)O)cc3)c2c(=O)[nH]1 [Pemetrexed] (partner 0.2 µM)
Procedure, shortened: as §1

EBC-1
relative viability ([1]; 0.253 µM): 0.913 | relative viability ([1]; 0.8 µM): 0.654 | relative viability ([1]; 2.53 µM): 0.222 | relative viability ([1]; 8 µM): 0.0742 | relative viability ([2]; first compound 0.253 µM): 0.376 | relative viability ([2]; first compound 0.8 µM): 0.215 | relative viability ([2]; first compound 2.53 µM): 0.126 | relative viability ([2]; first compound 8 µM): 0.114 | relative viability ([3]; first compound 0.253 µM): 0.117 | relative viability ([3]; first compound 0.8 µM): 0.101 | relative viability ([3]; first compound 2.53 µM): 0.0655 | relative viability ([3]; first compound 8 µM): 0.044 | relative viability ([4]; first compound 0.253 µM): 0.376 | relative viability ([4]; first compound 0.8 µM): 0.325 | relative viability ([4]; first compound 2.53 µM): 0.124 | relative viability ([4]; first compound 8 µM): 0.0971 | relative viability ([5]; first compound 0.253 µM): 0.675 | relative viability ([5]; first compound 0.8 µM): 0.65 | relative viability ([5]; first compound 2.53 µM): 0.143 | relative viability ([5]; first compound 8 µM): 0.0927 | relative viability ([6]; first compound 0.253 µM): 0.838 | relative viability ([6]; first compound 0.8 µM): 0.458 | relative viability ([6]; first compound 2.53 µM): 0.134 | relative viability ([6]; first compound 8 µM): 0.0589 | relative viability ([7]; first compound 0.253 µM): 0.207 | relative viability ([7]; first compound 0.8 µM): 0.224 | relative viability ([7]; first compound 2.53 µM): 0.169 | relative viability ([7]; first compound 8 µM): 0.118 | relative viability ([8]; first compound 0.253 µM): 0.681 | relative viability ([8]; first compound 0.8 µM): 0.476 | relative viability ([8]; first compound 2.53 µM): 0.193 | relative viability ([8]; first compound 8 µM): 0.0767 | relative viability ([9]; first compound 0.253 µM): 0.243 | relative viability ([9]; first compound 0.8 µM): 0.209 | relative viability ([9]; first compound 2.53 µM): 0.164 | relative viability ([9]; first compound 8 µM): 0.124 | relative viability ([10]; first compound 0.253 µM): 0.32 | relative viability ([10]; first compound 0.8 µM): 0.203 | relative viability ([10]; first compound 2.53 µM): 0.1 | relative viability ([10]; first compound 8 µM): 0.0715

NCI-H522
relative viability ([1]; 0.253 µM): 1.1 | relative viability ([1]; 0.8 µM): 0.869 | relative viability ([1]; 1 µM, anchor plate): 0.962 | relative viability ([1]; 2.53 µM): 0.768 | relative viability ([1]; 8 µM): 0.299 | relative viability ([11]; first compound 0.253 µM): 0.632 | relative viability ([11]; first compound 0.8 µM): 0.657 | relative viability ([11]; first compound 2.53 µM): 0.531 | relative viability ([11]; first compound 8 µM): 0.259 | relative viability ([12]; first compound 0.253 µM): 0.8 | relative viability ([12]; first compound 0.8 µM): 0.617 | relative viability ([12]; first compound 2.53 µM): 0.591 | relative viability ([12]; first compound 8 µM): 0.247 | relative viability ([13]; first compound 0.253 µM): 1.2 | relative viability ([13]; first compound 0.8 µM): 0.879 | relative viability ([13]; first compound 2.53 µM): 0.616 | relative viability ([13]; first compound 8 µM): 0.252 | relative viability ([14]; first compound 0.253 µM): 0.644 | relative viability ([14]; first compound 0.8 µM): 0.457 | relative viability ([14]; first compound 2.53 µM): 0.302 | relative viability ([14]; first compound 8 µM): 0.141 | relative viability ([15]; first compound 0.253 µM): 0.728 | relative viability ([15]; first compound 0.8 µM): 0.593 | relative viability ([15]; first compound 2.53 µM): 0.602 | relative viability ([15]; first compound 8 µM): 0.252 | relative viability ([16]; first compound 0.253 µM): 0.93 | relative viability ([16]; first compound 0.8 µM): 0.706 | relative viability ([16]; first compound 2.53 µM): 0.707 | relative viability ([16]; first compound 8 µM): 0.263 | relative viability ([17]; first compound 0.253 µM): 0.895 | relative viability ([17]; first compound 0.8 µM): 0.99 | relative viability ([17]; first compound 2.53 µM): 0.344 | relative viability ([17]; first compound 8 µM): 0.239 | relative viability ([18]; first compound 0.253 µM): 0.987 | relative viability ([18]; first compound 0.8 µM): 1.05 | relative viability ([18]; first compound 2.53 µM): 0.834 | relative viability ([18]; first compound 8 µM): 0.235 | relative viability ([19]; first compound 0.253 µM): 1.44 | relative viability ([19]; first compound 0.8 µM): 0.972 | relative viability ([19]; first compound 2.53 µM): 0.361 | relative viability ([19]; first compound 8 µM): 0.259 | relative viability ([8]; first compound 0.253 µM): 0.778 | relative viability ([8]; first compound 0.8 µM): 0.654 | relative viability ([8]; first compound 2.53 µM): 0.318 | relative viability ([8]; first compound 8 µM): 0.168 | relative viability ([20]; first compound 0.253 µM): 1.22 | relative viability ([20]; first compound 0.8 µM): 1.05 | relative viability ([20]; first compound 2.53 µM): 1.01 | relative viability ([20]; first compound 8 µM): 0.262
